How the values were obtained:
Type in all cases: cell-based
[1] = tested on: HCV replicon; assay: Replicon assay (Table 2, genotype not stated); conditions: Hepatitis C virus, Table 2, first measurement, luciferase activity after 48 hours
Protocol: Compounds were assayed for activity against HCV using the genotype 1a and 1b subgenomic replicon model systems. Stable cell lines bearing the genotype 1a and 1b replicons were used for screening of compounds. Both replicons are bicistonic and contain the firefly luciferase gene. The ET cell line is stably transfected with RNA transcripts harboring a I389luc-ubi-neo/NS3-3′/ET replicon with firefly luciferase-ubiquitin-neomycin phosphotransferase fusion protein and EMCV-IRES driven NS3-5B polyprotein containing the cell culture adaptive mutations (E1202G; T12801; K1846T) (Krieger at al, 2001 and unpublished). The genotype 1a replicon is a stable cell line licensed from Apath LLC, modified to contain the firefly luciferase gene. The cells were grown in DMEM, supplemented with 10% fetal calf serum, 2 mM Glutamine, Penicillin (100 IU/mL)/Streptomycin (100 μg/mL), 1× nonessential amino acids, and 250-500 μg/mL G418 (“Geneticin”). They were all available through Life Technologies (Bethesda, Md.). The cells were plated at 0.5×10^4 cells/well in 384 well plates containing compounds. The final concentration of compounds ranged between 0.03 μM to 50 μm and the final DMSO concentration of 0.5-1%.
Luciferase activity was measured 48 hours later by adding a Steady glo (Promega, Madison, Wis.). Percent inhibition of replication data was plotted relative to no compound control. Under the same condition, cytotoxicity of the compounds was determined using cell titer glo (Promega, Madison, Wis). IC50s were determined from a 10 point dose response curve using 3-4-fold serial dilution for each compound, which spans a concentration range >1000 fold. BioAssay determines the level of inhibition for each compound by normalizing cross-talk corrected plate values against the negative […] controls to determine Percent Inhibition:
These normalized values are exported to EC50 where they are plotted against the molar compound concentrations using the standard four parameter logistic equation: […]
Some EC50 measurements were repeated a second time and for both 1A and 1B genotypes after those reported in Table 2 for compounds 101-108 and the repeated data was reported in Table 3.

[2] = tested on: HCV Genotype 1A Replicon; assay: Replicon assay, genotype 1a subgenomic replicon, luciferase readout; conditions: Hepatitis C virus, 48 h, Table 3; luciferase activity after 48 hours
How it was run: (§1)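 Stable luciferase replicon cells (1b: ET line with adaptive mutations; 1a: Apath-derived) plated at 0.5×10^4 cells/well with compound (final 0.03–50 μM, 0.5–1% DMSO). Luciferase read after 48 h; EC50 from 10-point, 3–4-fold dilution curves by four-parameter logistic fit, normalized to no-compound and no-cell controls.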

[3] = tested on: HCV Genotype 1B Replicon; assay: Replicon assay, genotype 1b subgenomic replicon (ET cell line), luciferase readout; conditions: Hepatitis C virus, 48 h, Table 3; luciferase activity after 48 hours
How it was run: as §1

Compound	EC50 [1]	EC50 [2]	EC50 [3]
O=C(c1nc2c(C(F)(F)F)cc(-c3ccoc3)cn2c1Cl)N1CCC(N2CCCC2=O)CC1 [Compound 101, 1-[1-(3-Chloro-6-furan-3-yl-8-trifluoromethyl-imidazo[1,2-a]pyridine-2-carbonyl)-piperidin-4-yl]-pyrrolidin-2-one]	0.057 µM		
O=C(c1nc2c(C(F)(F)F)cc(-c3cn[nH]c3)cn2c1Cl)N1CCC(N2CCCC2=O)CC1 [Compound 102, 1-{1-[3-Chloro-6-(1H-pyrazol-4-yl)-8-trifluoromethyl-imidazo[1,2-a]pyridine-2-carbonyl]-piperidin-4-yl}-pyrrolidin-2-one]	0.683 µM		
O=C(c1nc2c(C(F)(F)F)cc(-c3ccoc3)cn2c1Cl)N1CCC(N2CCOC2=O)CC1 [Compound 103, 3-[1-(3-Chloro-6-furan-3-yl-8-trifluoromethyl-imidazo[1,2-a]pyridine-2-carbonyl)-piperidin-4-yl]-oxazolidin-2-one]	0.026 µM	0.01 µM	0.02 µM
O=C(c1nc2c(C(F)(F)F)cc(-c3ccccc3)cn2c1Cl)N1CCC(N2CCOC2=O)CC1 [Compound 104, 3-[1-(3-Chloro-6-phenyl-8-trifluoromethyl-imidazo[1,2-a]pyridine-2-carbonyl)-piperidin-4-yl]-oxazolidin-2-one]	0.283 µM		
O=C(c1nc2c(C(F)(F)F)cc(Br)cn2c1Cl)N1CCC(N2CCOC2=O)CC1 [Compound 105, 3-[1-(6-Bromo-3-chloro-8-trifluoromethyl-imidazo[1,2-a]pyridine-2-carbonyl)-piperidin-4-yl]-oxazolidin-2-one]	0.071 µM	0.03 µM	0.04 µM
C=C(C)c1cc(C(F)(F)F)c2nc(C(=O)N3CCC(N4CCOC4=O)CC3)c(Cl)n2c1 [Compound 106, 3-[1-(3-Chloro-6-isopropenyl-8-trifluoromethyl-imidazo[1,2-a]pyridine-2-carbonyl)-piperidin-4-yl]-oxazolidin-2-one]	0.005 µM	0.01 µM	0.02 µM
O=C(c1nc2c(C(F)(F)F)cc(C3=CCCC3)cn2c1Cl)N1CCC(N2CCOC2=O)CC1 [Compound 107, 3-[1-(3-Chloro-6-cyclopent-1-enyl-8-trifluoromethyl-imidazo[1,2-a]pyridine-2-carbonyl)-piperidin-4-yl]-oxazolidin-2-one]	0.016 µM		
O=C(c1nc2c(C(F)(F)F)cc(-c3cn[nH]c3)cn2c1Cl)N1CCC(N2CCOC2=O)CC1 [Compound 108, 3-{1-[3-Chloro-6-(1H-pyrazol-4-yl)-8-trifluoromethyl-imidazo [1,2-a]pyridine-2-carbonyl]-piperidin-4-yl}-oxazolidin-2-one]	0.213 µM	0.02 µM	0.13 µM
C[C@H]1OC(=O)N(C2CCN(C(=O)c3nc4c(C(F)(F)F)cc(C5CC5)cn4c3Cl)CC2)C1=O [Compound 192, (5R)-3-(1-{[3-chloro-6-cyclopropyl-8-(trifluoromethyl)imidazo[1,2-a]pyridin-2-yl]carbonyl}-4-piperidinyl)-5-methyl-1,3-oxazolidine-2,4-dione]		0.28 µM	0.02 µM
C[C@H]1OC(=O)N(C2CCN(C(=O)c3nc4c(C(F)(F)F)cc(Br)cn4c3Cl)CC2)C1=O [Compound 193, (5R)-3-(1-{[6-bromo-3-chloro-8-(trifluoromethyl)imidazo[1,2-a]pyridin-2-yl]carbonyl}-4-piperidinyl)-5-methyl-1,3-oxazolidine-2,4-dione]		0.77 µM	0.09 µM
O=C(c1nc2c(C(F)(F)F)cc(I)cn2c1Br)N1CCC(N2CCOC2=O)CC1 [Compound 194, 3-(1-{[3-bromo-6-iodo-8-(trifluoromethyl)imidazo[1,2-a]pyridin-2-yl]carbonyl}-4-piperidinyl)-1,3-oxazolidin-2-one]		0.03 µM	0.03 µM
O=C(c1nc2c(C(F)(F)F)cc(I)cn2c1Br)N1CCC(N2C(=O)COC2=O)CC1 [Compound 195, 3-(1-{[3-bromo-6-iodo-8-(trifluoromethyl)imidazo[1,2-a]pyridin-2-yl]carbonyl}-4-piperidinyl)-1,3-oxazolidine-2,4-dione]		0.05 µM	0.03 µM
CC(C)c1cc(C(F)(F)F)c2nc(C(=O)N3CCC(N4CCOC4=O)CC3)cn2c1 [Compound 196, 3-(1-{[6-(1-methylethyl)-8-(trifluoromethyl)imidazo[1,2-a]pyridin-2-yl]carbonyl}-4-piperidinyl)-1,3-oxazolidin-2-one]		1.19 µM	0.96 µM
O=C(c1nc2c(C(F)(F)F)cc(C3CC3)cn2c1Br)N1CCC(N2CCOC2=O)CC1 [Compound 197, 3-(1-{[3-bromo-6-cyclopropyl-8-(trifluoromethyl)imidazo[1,2-a]pyridin-2-yl]carbonyl}-4-piperidinyl)-1,3-oxazolidin-2-one]		0.01 µM	0.01 µM
CC(=O)Nc1cc(C(F)(F)F)c2nc(C(=O)N3CCC(N4CCOC4=O)CC3)c(Cl)n2c1 [Compound 198, N-[3-chloro-2-{[4-(2-oxo-1,3-oxazolidin-3-yl)-1-piperidinyl]carbonyl}-8-(trifluoromethyl)imidazo[1,2-a]pyridin-6-yl]acetamide]		≥ 5.01 µM	≥ 5.01 µM
O=C(c1nc2c(C(F)(F)F)cc(-c3ccoc3)cn2c1Cl)N1CCC(n2cn[nH]c2=O)CC1 [Compound 199, 4-(1-{[3-chloro-6-(3-furanyl)-8-(trifluoromethyl)imidazo[1,2-a]pyridin-2-yl]carbonyl}-4-piperidinyl)-2,4-dihydro-3H-1,2,4-triazol-3-one]		4.79 µM	5.37 µM
O=C(c1nc2c(C(F)(F)F)cc(C3CC3)cn2c1Cl)N1CCC(N2C(=O)CCC2=O)CC1 [Compound 200, 1-(1-{[3-chloro-6-cyclopropyl-8-(trifluoromethyl)imidazo[1,2-a]pyridin-2-yl]carbonyl}-4-piperidinyl)-2,5-pyrrolidinedione]		0.17 µM	0.03 µM
O=C(c1nc2c(C(F)(F)F)cc(C3CC3)cn2c1Cl)N1CCC(N2CCCC2=O)CC1 [Compound 201, 1-(1-{[3-chloro-6-cyclopropyl-8-(trifluoromethyl)imidazo[1,2-a]pyridin-2-yl]carbonyl}-4-piperidinyl)-2-pyrrolidinone]		0.1 µM	0.03 µM
O=C(c1nc2c(C(F)(F)F)cc(C3CC3)cn2c1Cl)N1CCC(N2C(=O)COC2=O)CC1 [Compound 202, 3-(1-{[3-chloro-6-cyclopropyl-8-(trifluoromethyl)imidazo[1,2-a]pyridin-2-yl]carbonyl}-4-piperidinyl)-1,3-oxazolidine-2,4-dione]		0.02 µM	0.01 µM
O=C(c1cn2cc(-c3ccoc3)cc(C(F)(F)F)c2n1)N1CCC(N2CCOC2=O)CC1 [Compound 203, 3-(1-{[6-(3-furanyl)-8-(trifluoromethyl)imidazo[1,2-a]pyridin-2-yl]carbonyl}-4-piperidinyl)-1,3-oxazolidin-2-one]		0.32 µM	2.34 µM
CC1(C)CN(C(=O)c2nc3c(C(F)(F)F)cc(-c4ccoc4)cn3c2Cl)CCC1N1CCOC1=O (stereo not shown) [Compound 204, 3-(1-{[3-chloro-6-(3-furanyl)-8-(trifluoromethyl)imidazo[1,2-a]pyridin-2-yl]carbonyl}-3,3-dimethyl-4-piperidinyl)-1,3-oxazolidin-2-one]		0.04 µM	0.3 µM
CC1(C)CC(N2CCOC2=O)CCN1C(=O)c1nc2c(C(F)(F)F)cc(-c3ccoc3)cn2c1Cl (stereo not shown) [Compound 211, 3-(1-{[3-chloro-6-(3-furanyl)-8-(trifluoromethyl)imidazo[1,2-a]pyridin-2-yl]carbonyl}-2,2-dimethyl-4-piperidinyl)-1,3-oxazolidin-2-one]		0.58 µM	0.34 µM
N#Cc1cc(C(F)(F)F)c2nc(C(=O)N3CCC(N4CCOC4=O)CC3)c(Cl)n2c1 [Compound 239, 3-chloro-2-{[4-(2-oxo-1,3-oxazolidin-3-yl)-1-piperidinyl]carbonyl}-8-(trifluoromethyl)imidazo[1,2-a]pyridine-6-carbonitrile]		0.8 µM	7.94 µM
